Results taken from patent US20170151266A1, “METHODS AND COMPOSITIONS FOR ENHANCED DRUG DELIVERY TO THE EYE AND EXTENDED DELIVERY FORMULATIONS” (THE REGENTS OF THE UNIVERSITY OF COLORADO, A BODY, priority 2011, published 2017).
“And” between values parts separate entries of the source, which are not always exact repeats. Equal values may be shown once. Values belong to the compound of their own block, whether it stands above or below them.

Tests used:
[1] = Pharmacokinetic model of budesonide succinate transport; set-up: species or system bovine; conditions: PK model, A to B in presence of inhibitor (FIG. 4A)
From the text: Circles on left side (5 BSA; 6 B) represent the donor chamber whereas circles on right side (7 BSA; 8 B) represent the receiver chamber for BSA transport in A to B direction. 6 B and 8 B were included and represent budesonide formed/transported during the course of transport study. A separate compartment was included to account for the pro-drug/parent drug loss due to tissue absorption. K5>0 represents rate constant for drug loss into the tissue, K5>6 and K7>8 represent rate constants for pro-drug conversion into parent drug on donor and receiver side respectively. […] K5>7 Act represent active transport rate constant and contribution (0.5%) of active diffusion in BSA transport.
The model was developed in such a way that it accounted for transport of pro-drug from the donor to the receiver side, transport of parent drug formed in the donor chamber to the receiver side over the period of transport study, loss of pro-drug/drug into the tissues and any backward transport from the receiver to the donor side. The transport rate constants for parent drug and pro-drug were calculated from the cumulative percentage transport values. Rate constant for conversion of pro-drug to the parent drug was calculated from the percentage of the pro-drug and parent drug formed. Model was run with the dose amounts observed in the donor and receiver sides after 6 h transport studies. […]

[2] = Ex vivo transscleral delivery after posterior subconjunctival injection in euthanized rats; set-up: species or system Brown Norway (BN) rats
Procedure: All animals were handled according to the ARVO statement for the use of Animals in Ophthalmic and Vision Research. […] Drug suspensions were shaken before each posterior subconjunctival injection. Rats were divided into two groups. […] Twenty-five microliters of budesonide suspension was injected using a 30 G needle in the posterior subconjunctival space of one eye of each animal and the other eye was not treated. At the end of 1 h, eyes were enucleated and immediately frozen in dry ice and isopentane bath. All samples were stored at −80 ° C. until LCMS/MS analysis. […] At the end of 1 h, the eyes were enucleated and frozen in a similar manner as above until analysis. Periocular tissue samples were also collected from both the groups at the end of the study. Different ocular tissues including sclera, choroid-RPE, retina, and vitreous were isolated and analyzed for drug levels.

[3] = In vivo delivery of bevacizumab in rats, ocular fluorophotometry after intravitreal injection; set-up: species or system rat; conditions: day 15
Procedure: Rats were anesthetized by intraperitoneal injection of ketamine (35 mg/kg)/xylazine (5 mg/kg) and once the rats were under anesthesia, betadine solution was applied on the eye surface, and intravitreal injections were made using a 30-G needle. […] Baseline fluorescence values of eyes were monitored before injecting the formulations. At each time point, three fluorometric scans were taken and the mean value was used.

[4] = Aqueous solubility (Solaq) listed in physicochemical property tables; conditions: pH 7.4, 25° C.
[5] = In vitro transscleral transport of budesonide/budesonide pro-drugs; assay type: in vitro ADME, bovine; conditions: sclera to RPE direction (A to B); 6 h; 37° C.
From the text: Freshly excised bovine eyes were used in all studies. […] Equatorial region of the remaining sclera-choroid-[…]) was used as is for SCRPE transport studies. […] Isotonic assay buffer (pH 7.4) with the following composition was used during the entire tissue isolation procedure and transport study: […] Two hundred microliters of sample was collected from the receiver side at specific time intervals and replenished with fresh buffer. The drug/pro-drug content in the receiver and donor samples was analyzed using an LC-MS/MS method.

ARPE19 cells = conditions: at nanomolar concentrations, glucocorticoid-receptor mediated; cited from earlier work
[6] = for binding/association constant (K, Ka) with melanin: 1 mg/ml melanin suspension in PBS (pH 7.4), 37° C., celecoxib 2 μg/ml, pro-drugs 250 μg/ml
[7] = tested on: blood retinal barrier leakage; conditions: diabetic rats; eye drops twice daily for 60 days; C-SA 0.2% w/v, C-SA-T 1.0% w/v
Procedure: After overnight fasting for 12-16 h, an intraperitoneal injection of 30 mg/ml solution of streptozotocin in 10 mM citrate buffer (pH 4.5) was administered (60 mg/kg body weight) to induce diabetes. After 3-4 h of streptozotocin injection, animals were put on regular diet and 24 h after streptozotocin injection, blood sample (5-10 μl) was collected via tail vein. The blood glucose levels in the animals were determined with a glucose monitor (One Touch; Life Scan Inc., Milpitas, Calif.). Animals with blood glucose levels greater than 250 mg/dL were considered diabetic. The animals were divided into four groups. […] Treatment was started immediately after diabetes induction. […]
Retinal FITC-Dextran Leakage: BN rats from each group were used for the assessment of FITC-dextran leakage. […] The relative FITC-dextran fluorescence units in 1 ml of supernatant were measured using a spectrofluorometer set at an excitation wavelength of 483 nm and an emission wavelength of 538 nm. Fluorescence of blank PBS was also
measured for subtraction from each sample reading. Final concentration of FITC-dextran was expressed as μg/g tissue. […] 20 μ (˜20 mg) of plasma was diluted to 1 ml (50 times dilution) with PBS for quantification under the linear range of the standard samples. […] The amount of FITC-dextran leakage in to the ocular tissues was calculated using the following equation, after correcting for dilutions.

retinal leukostasis = conditions: diabetic rats; eye drops twice daily for 60 days; C-SA 0.2% w/v, C-SA-T 1.0% w/v
Procedure: After overnight fasting for 12-16 h, an intraperitoneal injection of 30 mg/ml solution of streptozotocin in 10 mM citrate buffer (pH 4.5) was administered (60 mg/kg body weight) to induce diabetes. After 3-4 h of streptozotocin injection, animals were put on regular diet and 24 h after streptozotocin injection, blood sample (5-10 μl) was collected via tail vein. The blood glucose levels in the animals were determined with a glucose monitor (One Touch; Life Scan Inc., Milpitas, Calif.). Animals with blood glucose levels greater than 250 mg/dL were considered diabetic. The animals were divided into four groups. […] Treatment was started immediately after diabetes induction. Both eyes were dosed twice daily for 60 days in group 2, 3 and 4 with their respective treatment. Animals in groups 2-4 were sacrificed at the end of 2 months. Normal animals in group 1 were sacrificed immediately after acclimatization in the animal facility. For each of the three assays, namely, FITC-Dextran leakage, vitreous-to-plasma protein ratio, and leukostasis, we used 4 animals from each of the four groups mentioned above.
BN rats from each group were used for the assessment of adherent leukocytes. At 1 hour after last dose on day 61, rats were sacrificed for ex-vivo retinal leukostasis assay. First, the animals were anesthetized with ketamine (80 mg/kg) and xylazine (12 mg/kg) administered intraperitoneally. […]

[8] = In vitro transport across bovine cornea
From the text: (§1) Freshly excised bovine eyes procured from a local slaughter house were used for all in vitro transport studies. Fatty or adherent tissue all around the eye is removed first. Cornea and conjunctiva were then removed. For isolation of sclera and choroid-RPE (CRPE), the anterior segment of the eye was removed with a circumferential cut below the limbus. The eye was cut into two halves along the geometric axis, a line joining the anterior pole (corneal center) and the posterior pole (center of the scleral curve), and the vitreous was removed. Neural retina was removed by exposing the eyecup to isotonic assay buffer at pH 7.4. Equatorial region of the remaining sclera-choroid-RPE (SCRPE) was used as is for SCRPE transport studies. All transport studies for celecoxib were performed in presence of 5% HP-β-CD. […] Drug solutions were prepared in the following manner: Celecoxib (100 μg/ml) in presence of 5% HP-β-CD was made after triturating celecoxib with HP-β-CD in a pestle-mortar followed by addition of assay buffer. The mixture was stirred for 24 h. Before use, the clear solution was filtered through 0.2 μ filter. […] All transport experiments were performed for 6 h at 37° C. Samples were collected at regular time intervals from the receiver side with replacement with fresh assay buffer (pH 7.4). Transport studies with all solutes were performed in A to B direction meaning outward to inward (eg. sclera towards choroid-RPE) movement of the solute was measured. […] Samples from all the transport studies were analyzed on LC-MS/MS.

[9] = In vitro transport across bovine conjunctiva
From the text: Freshly excised bovine eyes procured from a local slaughter house were used for all in vitro transport studies. Fatty or adherent tissue all around the eye is removed first. Cornea and conjunctiva were then removed. For isolation of sclera and choroid-RPE (CRPE), the anterior segment of the eye was removed with a circumferential cut below the limbus. The eye was cut into two halves along the geometric axis, a line joining the anterior pole (corneal center) and the posterior pole (center of the scleral curve), and the vitreous was removed. Neural retina was removed by exposing the eyecup to isotonic assay buffer at pH 7.4. Equatorial region of the remaining sclera-choroid-RPE (SCRPE) was used as is for SCRPE transport studies. All transport studies for celecoxib were performed in presence of 5% HP-β-CD. […] Drug solutions were prepared in the following manner: Celecoxib (100 μg/ml) in presence of 5% HP-β-CD was made after triturating celecoxib with HP-β-CD in a pestle-mortar followed by addition of assay buffer. The mixture was stirred for 24 h. Before use, the clear solution was filtered through 0.2 μ filter. […] Transport studies with all solutes were performed in A to B direction meaning outward to inward (eg. sclera towards choroid-RPE) movement of the solute was measured. […] Samples from all the transport studies were analyzed on LC-MS/MS.

[10] = In vitro transport across bovine sclera-choroid-RPE (celecoxib series)
From the text: as §1

[11] = tested on: blood retinal barrier leakage; conditions: diabetic rats; eye drops twice daily for 60 days; C-SA 0.2% w/v, C-SA-T 1.0% w/v; remark: listed apart in the source
Procedure: The animals were divided into four groups.
Plasma samples were stored at −80° C.

[12] = 10 μl eye drop, 2 mg/ml; 1 h
Procedure: At the end of 1 h, the animals were euthanized and the eyes were enucleated. Periocular tissue and plasma samples were collected.
Sample processing: Acetonitrile precipitation method was used for drug extraction from the tissues. Briefly, eyes from each eye drop study were dissected for tissue isolation. Tissues were homogenized in 250 μl water (pH 7.4 adjusted with 5 mM ammonium acetate) containing indoprofen as internal standard at a concentration of 500 ng/ml (1000 ng/ml stock was made). Similar volume of acetonitrile was added and mixed well by vortexing for 30 minutes. Samples were centrifuged at 15,000 rpm for 30 minutes. Supernatant was collected for LC-MS/MS analysis.
Total run time was 5.5 min.

[13] = Group 2, 25 μl of 1 mg/ml suspension, posterior subconjunctival, 1 h
[14] = end of 6 h, 37° C., 100 μg/ml, celecoxib in 5% HP-β-CD

Compound: Alexa-bevacizumab solution: Alexa Fluor 488 conjugated bevacizumab injected as solution (control)
Alexa-bevacizumab concentration in the vitreous [3]: 2.2 µg/mL

Compound: CCCC1O[C@@H]2C[C@H]3[C@@H]4CCC5=CC(=O)C=C[C@]5(C)[C@H]4[C@@H](O)C[C@]3(C)[C@]2(C(=O)CO)O1 (stereo partly drawn) [Budesonide]
cumulative percentage transport [5]: 0.2%
VEGF secretion and mRNA expression (ARPE19 cells): capable of reducing
Solaq ([4]; Table 1): Budesonide (0.02) mg/ml

Compound: Cc1ccc(-c2cc(C(F)(F)F)nn2-c2ccc(S(N)(=O)=O)cc2)cc1 [Celecoxib, reference compound]
Cumulative percent transport across bovine cornea [8, 14]: 0.017%
Transport across bovine conjunctiva [9, 14]: 3.9%
Transport across bovine sclera-choroid-RPE [10, 14]: approximately 0.1%
binding/association constant (K, Ka) with melanin [6]: 1.01×10^6 M^−1 and 1.01 E6 M^−1
level in cornea, celecoxib compared with CSA [12]: higher than CSA
level in iris and CRPE, celecoxib compared with C-SA [12]: higher
level in periocular space, celecoxib compared with CSA [12]: lower than that of CSA
Solaq ([4]; Table 2): Celecoxib (0.005) mg/ml

Continued, in another order:

contribution of active diffusion in BSA transport [1]: 0.5%
ex vivo drug level (pro-drug) in CRPE [2, 13]: 0.6 μg/g tissue
ex vivo drug level (pro-drug) in retina [2, 13]: 0.2 μg/g tissue
ex vivo drug level (pro-drug) in sclera [2, 13]: 1.9 μg/g tissue
ex vivo drug level (pro-drug) in vitreous [2, 13]: 0.05 μg/g tissue
ex vivo level of budesonide released from budesonide succinate in CRPE [2, 13]: 7.2 μg/g tissue
ex vivo level of budesonide released from budesonide succinate in retina [2, 13]: 2.2 μg/g tissue
ex vivo level of budesonide released from budesonide succinate in sclera [2, 13]: 11.0 μg/g tissue
ex vivo level of budesonide released from budesonide succinate in vitreous [2, 13]: 0.5 μg/g tissue
budesonide delivery in sclera, choroid-RPE and retina, higher with prodrug compared to plain drug budesonide ([2]; rat): 2-5 folds
Compound: Succinic acid mono-budesonide ester [budesonide succinate]

Solaq ([4]; Table 4): Ruboxistaurin (0.029) mg/ml
Compound: CN(C)C[C@@H]1CCn2cc(c3ccccc32)C2=C(C(=O)NC2=O)c2cn(c3ccccc23)CCO1 [Ruboxistaurin]

binding/association constant (K, Ka) with melanin [6]: 8.89×10^3 M^−1 and 8.89 E3 M^−1
Compound: Cc1ccc(-c2cc(C(F)(F)F)nn2-c2ccc(S(=O)(=O)NC(=O)CCC(=O)O)cc2)cc1 [C-SA, Celecoxib succinamidic acid]
retinal FITC-dextran leakage (mean± s.d.) [7]: 93.66 ± 37.08 µL/g/min
Mean retinal leukocyte count (retinal leukostasis): 95±12

Transport across bovine cornea, times higher than celecoxib [8]: ~25 times
reduction in transport across cornea with taurine as an inhibitor [8]: > 50%
Transport across bovine conjunctiva, times higher than celecoxib [9]: ~4 times
Transport across bovine sclera-choroid-RPE, times higher than celecoxib [10]: ~20 times
reduction in transport across SCRPE with taurine as an inhibitor [10]: > 50%
binding/association constant (K, Ka) with melanin [6]: 7.39×10^3 M^−1 and 7.93 E3 M^−1
melanin binding, fold lower than that of celecoxib ([6]; ITC): ~130 fold
Compound: Cc1ccc(-c2cc(C(F)(F)F)nn2-c2ccc(S(=O)(=O)NC(=O)CCC(=O)NCCS(=O)(=O)O)cc2)cc1 [C-SA-T, celecoxib succinamidic acid taurine]
average vitreous-to-plasma protein ratio [11]: 0.28±0.06
retinal FITC-dextran leakage (mean± s.d.) [7]: 23.64 ± 4.20 µL/g/min
Mean retinal leukocyte count (retinal leukostasis): 47±10
